Results published in paper PMC10403075, “Short hydrocarbon stapled ApoC2-mimetic peptides activate lipoprotein lipase and lower plasma triglycerides in mice” (Frontiers in Cardiovascular Medicine, 2023).
Residues, ends and D or L forms follow the SMILES beside them.

What was measured:
[1] = system: hAPOC3-tg mice; conditions: ApoC3 transgenic mice; cited from earlier work
Description: (§1) We recently developed a bi-helical ApoC2 mimetic peptide called D6PV that contains 41 amino acids ([16]). ApoC2 mimetic peptides could potentially be used as a treatment for pancreatitis in patients with genetic APOC2 deficiency and for the prevention of cardiovascular disease in patients with moderate elevations in plasma triglycerides ([1]). […] Except for one amino acid substitution, the secon ...

[2] = system: Apoc2^h/h mice; conditions: ApoC2 hypomorphic mice, single intravenous injection, within a few hours; cited from earlier work
Description: as §1

[3] = system: Pepsin; assay: Peptide proteolysis resistance, pepsin; format: in vitro ADME; conditions: peptide 0.1 mM, pepsin 3 mg/ml, 0.02M acetate buffer pH 2, 1 h, MALDI-TOF with internal standards, triplicates
Procedure: (§2) Peptides (0.1 mM) were incubated at 37°C in 20 mM ammonium bicarbonate buffer at pH 8.2, with 10 ug/ml trypsin or […] Proteinase K. To test resistance to Pepsin, peptides (0.1 mM) were incubated with Pepsin (3 mg/ml) in 0.02M acetate buffer (pH 2). The amount of intact peptide was monitored over time by Matrix-assisted laser desorption/ionization time-of-flight (MALDI-TOF) on a Bruker Autoflex III instrument (Bruker Optics, Inc., USA). Internal standards (Bombesin, ACTH (1–17), ACTH (18–39) and Insulin) were used to quantify the relative amount of peptide in each sample.

[4] = biological target: T1, LPL from bovine milk (Bos taurus, UniProt P11151); assay: In vitro LPL activity assay (NEFA generation, ApoC2-deficient plasma substrate); format: biochemical
T1 construct: LPL from bovine milk (Sigma-Aldrich); purchased Sigma-Aldrich; host or cells: bovine milk (natural source)
T1 sequence (P11151 29-478): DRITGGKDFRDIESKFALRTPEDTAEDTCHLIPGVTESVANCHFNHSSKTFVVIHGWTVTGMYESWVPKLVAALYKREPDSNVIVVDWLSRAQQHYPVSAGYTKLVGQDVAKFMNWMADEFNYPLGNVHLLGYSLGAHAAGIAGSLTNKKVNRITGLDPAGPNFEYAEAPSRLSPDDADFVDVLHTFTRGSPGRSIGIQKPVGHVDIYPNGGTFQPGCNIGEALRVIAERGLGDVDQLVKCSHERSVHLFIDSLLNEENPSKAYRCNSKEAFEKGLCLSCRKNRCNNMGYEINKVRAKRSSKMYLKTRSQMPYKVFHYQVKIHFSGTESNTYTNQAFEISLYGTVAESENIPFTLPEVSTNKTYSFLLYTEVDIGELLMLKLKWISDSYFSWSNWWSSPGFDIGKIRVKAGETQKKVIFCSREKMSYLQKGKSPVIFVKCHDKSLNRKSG
Procedure: (§3) LPL activity was determined by measuring the generation of non-esterified fatty acids (NEFA). In a 96-well plate, 0–2 µM of an ApoC2 mimetic peptide, 0.83 nM of LPL from bovine milk (Sigma-Aldrich), ApoC2-deficient ethylenediaminetetraacetic acid (EDTA)-plasma (diluted with PBS to a final TG concentration of 0.67 mg/dl), 2 IU/ml heparin, 0.2% fatty acids free bovine serum albumin (BSA) (ICN Biomedicals), and PBS (Life Technologies) were combined in a final reaction volume of 50 μl. The reaction mixture was pre-incubated on ice for 30 min and incubated at 37°C for 1 h. NEFA were measured with a coupled enzyme reaction (Wako Diagnostics) in a Synergy H1 microplate reader (BioTek, USA).

[5] = biological target: T1, LPL from bovine milk; assay: In vitro LPL activation assay after pepsin treatment; format: biochemical; conditions: 1 h pepsin at pH 2, then pH neutralised; compared with untreated peptide, area-under-the-curve, triplicates
Procedure: as §3, §2
Figure 4 Peptide proteolysis resistance. […]

[6] = biological target: T2, human LPL (Homo sapiens, UniProt P06858); assay: Isothermal titration calorimetry LPL activity assay in pooled human plasma; format: biochemical; conditions: normolipidemic pooled human EDTA-plasma nearly undiluted, 1 nM human LPL injections, 25°C, initial rate, on top of endogenous activators, triplicates
T2 sequence (P06858 28-475): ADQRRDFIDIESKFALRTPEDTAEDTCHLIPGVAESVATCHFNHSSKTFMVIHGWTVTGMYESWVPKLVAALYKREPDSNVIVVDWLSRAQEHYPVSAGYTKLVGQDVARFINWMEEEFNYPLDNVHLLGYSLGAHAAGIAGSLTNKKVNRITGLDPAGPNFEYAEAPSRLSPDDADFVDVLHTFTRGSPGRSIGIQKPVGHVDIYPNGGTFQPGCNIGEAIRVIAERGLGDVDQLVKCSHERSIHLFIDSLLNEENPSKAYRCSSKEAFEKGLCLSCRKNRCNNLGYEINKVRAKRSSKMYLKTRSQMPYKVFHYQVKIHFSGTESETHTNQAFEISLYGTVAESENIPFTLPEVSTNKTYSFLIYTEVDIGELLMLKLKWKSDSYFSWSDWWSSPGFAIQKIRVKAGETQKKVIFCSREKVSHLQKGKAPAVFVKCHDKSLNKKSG
Procedure: Isothermal titration calorimetry (ITC) measurements, which depends upon the initial rate of reaction, were performed to assess peptide activation of LPL in nearly undiluted human plasma as previously described ([22], [23]). Peptides in 20 mM TRIS, pH 8.2 at the indicated concentrations were added to a normolipidemic EDTA-plasma pool. The reaction was initiated by three sequential injections of 1 nM human LPL. The heat of the reaction was monitored with the iTC200 calorimeter (GE Healthcare, USA) and the initial reaction rates at 25°C were converted into relative activity units.

[7] = Circular dichroism spectroscopy; format: physicochemical; conditions: CD 190-250 nm, 0.1 cm cell, calculated from spectrum
Procedure: Circular dichroism (CD) spectra were acquired on a Chirascan Q100 spectrometer. CD spectra were recorded in the190–250 nm range, using a 0.1 cm quartz cell and analyzed with Bettsele® on-line software ([24]).

[8] = biological target: Proteinase K (Parengyodontium album, UniProt P06873); format: in vitro ADME; conditions: pH 8.2
Chain of Proteinase K (P06873 106-384): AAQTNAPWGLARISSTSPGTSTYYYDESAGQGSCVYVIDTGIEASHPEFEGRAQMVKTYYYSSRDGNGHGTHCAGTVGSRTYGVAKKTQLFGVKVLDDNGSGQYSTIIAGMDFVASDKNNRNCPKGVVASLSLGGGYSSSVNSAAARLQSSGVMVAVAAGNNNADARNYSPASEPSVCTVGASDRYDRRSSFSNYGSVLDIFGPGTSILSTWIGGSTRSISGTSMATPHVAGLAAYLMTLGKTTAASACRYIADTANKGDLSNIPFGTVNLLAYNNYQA
Procedure: as §2

[9] = system: Apoc2^h/h mice; assay: Plasma lipids in ApoC2-hypomorphic mice after peptide injection; format: in vivo, mouse; conditions: single IP 1 umole/kg, n = 4
Procedure: ApoC2–hypomorphic mice (Apoc2^h/h) ([25]) and human ApoC3-transgenic (hAPOC3-tg) mice ([26]) were fed a regular rodent chow diet (NIH-31 chow diet: Zeigler Brothers Inc.). Peptides dissolved in 20 mM TRIS (pH 8.2) or vehicle control were injected intraperitoneally or intravenously at the indicated concentrations. Blood samples were collected from the retro-orbital sinus with a heparinized capillary tube. Whole blood was centrifuged at 1,000 g for 20 min at 4°C to obtain plasma. All animal procedures were approved by the National Heart, Lung, and Blood Institute Animal Care and Use Committee (protocol #H-0050).

[10] = system: trypsin; assay: Peptide proteolysis resistance, trypsin; format: in vitro ADME; conditions: peptide 0.1 mM, 10 ug/ml trypsin, 20 mM ammonium bicarbonate pH 8.2, 37°C, MALDI-TOF with internal standards, first time point 3 h, triplicates
Procedure: as §2

CC[C@H](C)[C@H](NC(=O)CNC(=O)[C@@H](NC(=O)[C@H](Cc1ccc(O)cc1)NC(=O)[C@@H](NC(=O)[C@H](CO)NC(=O)[C@@H](NC(=O)[C@H](C)NC(=O)[C@@H]1CCCN1C(=O)[C@@H](NC(=O)[C@H](Cc1ccccc1)NC(=O)[C@H](CCCCN)NC(=O)[C@H](CCC(=O)O)NC(=O)[C@H](Cc1ccc(O)cc1)NC(=O)[C@H](CC(C)C)NC(=O)[C@H](CC(=O)O)NC(=O)[C@H](CCCNC(=N)N)NC(=O)[C@H](CC(C)C)NC(=O)[C@H](CCCCN)NC(=O)[C@H](CCC(=O)O)NC(=O)[C@H](Cc1ccccc1)NC(=O)[C@@H](NC(=O)[C@H](CCC(=O)O)NC(=O)[C@H](CCCCN)NC(=O)[C@H](CC(C)C)NC(=O)[C@H](Cc1ccc(O)cc1)NC(=O)[C@@H](N)CC(=O)O)C(C)C)[C@@H](C)O)C(C)C)[C@@H](C)O)[C@@H](C)O)C(=O)N[C@@H](Cc1ccccc1)C(=O)N[C@H](C(=O)N[C@@H](CC(=O)O)C(=O)N[C@@H](CCC(N)=O)C(=O)N[C@H](C(=O)N[C@@H](CC(C)C)C(=O)N[C@@H](CO)C(=O)N[C@H](C(=O)N[C@@H](CC(C)C)C(=O)N[C@@H](CCCCN)C(=O)NCC(=O)N[C@@H](CCC(=O)O)C(=O)N[C@@H](CCC(=O)O)C(=O)O)C(C)C)C(C)C)[C@@H](C)O [D6PV, reference compound] (H-DYLKEVFEKLRDLYEKFTPAVSTYTGIFTDQVLSVLKGEE-OH; N-terminus assumed)
plasma TG [1]: lowered TG
plasma TG [2]: markedly lowered TG
intact full-length peptide after pepsin incubation [3]: No intact peptide was observed
EC50 [4]: 107 nM
ability to activate LPL after pepsin treatment [5]: almost completely inactive
LPL activity by isothermal titration calorimetry [6]: doubled the activity of LPL
alpha-helical secondary structure by CD [7]: 42%
intact full-length peptide after Proteinase K incubation [8]: essentially no intact peptide was detected
reduction in plasma triglycerides ([9]; 3 h after injection): > 90%
plasma cholesterol [9]: lowered plasma cholesterol
intact full-length peptide after trypsin incubation [10]: essentially no intact peptide was detected
